Measured values published in patent US8309768B2, “FTY720-derived anticancer agents” (The Ohio State University Research Foundation, priority 2010, dated 2012).

Tests used:
PLC5 cells = test: MTT cell viability assay, PLC5; type: cell-based; settings: 24 h of treatment
Experimental: Cell lines, culture and reagents. The HCC cell lines Hep3B, PLC5 and Huh7, as well as primary nonmalignant human hepatocytes were used in this study. Cancer cells were cultured in Dulbecco's Modified Eagle's medium (DMEM) supplemented with 10% fetal bovine serum (FBS). Hepatocytes were maintained in defined Hepatocyte Culture Medium. […] Various polyclonal and monoclonal antibodies were used for western blotting, immunocytochemical, and flow cytometric analyses.
Cell viability assay. Cell viability was assessed by 3-(4,5-dimethylthiazol-2-yl)-2,5-diphenyl-2H-tetrazolium bromide (MTT) assays in six replicates. Cells were seeded (4,000 cells/well; 96-well plate) for 24 h and treated with test agents in 5% FBS-supplemented DMEM. After treatment, cells were incubated in medium containing 0.5 mg/ml MTT (37° C., 2 h). Reduced MTT was dissolved in DMSO (200 μL/well) and absorbances measured at 570 nm.

human recombinant SphK2 = biological target: T1, human recombinant SphK2 (Homo sapiens, UniProt Q9NRA0); test: Phosphorylation of FTY720 and OSU-2S by SphK2 (radiometric, TLC); type: biochemical; settings: 5 μM compound, [γ-32P]-ATP, 37° C., 60 min, TLC/autoradiography
T1 construct: purchased Cayman
T1 sequence (Q9NRA0 1-654): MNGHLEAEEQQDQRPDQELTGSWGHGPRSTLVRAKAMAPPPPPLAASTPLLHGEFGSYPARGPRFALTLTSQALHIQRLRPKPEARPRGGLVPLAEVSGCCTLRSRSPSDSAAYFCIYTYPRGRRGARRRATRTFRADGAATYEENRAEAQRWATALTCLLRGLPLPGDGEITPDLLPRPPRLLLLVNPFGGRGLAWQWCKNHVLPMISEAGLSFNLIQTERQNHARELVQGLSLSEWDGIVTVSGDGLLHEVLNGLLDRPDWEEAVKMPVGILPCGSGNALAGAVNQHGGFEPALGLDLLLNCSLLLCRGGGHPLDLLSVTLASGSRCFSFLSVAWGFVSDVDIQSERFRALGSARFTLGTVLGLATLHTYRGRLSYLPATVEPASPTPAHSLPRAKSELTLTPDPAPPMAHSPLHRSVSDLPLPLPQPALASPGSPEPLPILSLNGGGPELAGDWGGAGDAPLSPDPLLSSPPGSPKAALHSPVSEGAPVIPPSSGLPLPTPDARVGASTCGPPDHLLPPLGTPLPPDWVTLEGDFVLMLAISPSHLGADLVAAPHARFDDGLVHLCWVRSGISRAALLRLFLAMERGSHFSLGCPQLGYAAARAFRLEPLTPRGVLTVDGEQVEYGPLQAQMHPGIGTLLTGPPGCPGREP
Experimental: Phosphorylation of FTY720 and OSU-2S by SphK2. Analysis of SphK2-mediated phosphorylation was performed as reported with modifications. Prieschl […] J Exp Med, 190, 1-8 (1999). Briefly, 5 μM FTY720 or OSU-2S was incubated with 0.75 μg/ml human recombinant SphK2 (Cayman), 5 μCi [γ-^32P]-ATP, and 0.5 mM cold ATP at 37° C. for 60 min. The reaction products were separated by silica-gel thin layer chromatography (TLC) and visualized by autoradiography.

[1] = Toxicity evaluation in tumor-bearing mice (body weight, blood counts, histopathology); type: in vivo, athymic nude mice; settings: for mice with abdominal adhesions with varying amounts of peritonitis: of six mice per group examined histologically
Experimental: Xenograft tumor models. Ectopic tumors were established in athymic nude mice by subcutaneous injection of 1×10^6 Hep3B cells in a total volume of 0.1 ml of serum-free medium containing 50% Matrigel. Mice with established tumors were randomized to five groups (n=8) that received daily i.p. injections of OSU-2S or FTY720 at 5 or 10 mg/kg, or the vehicle. Tumor burdens were determined weekly using calipers (volume=width^2×length×0.52). Body weights were measured weekly. At the study endpoint, tumors were harvested, snap-frozen and stored at −80° C. for biomarker analysis. Blood and tissues were collected for evaluation of complete blood counts, serum chemistry and histopathology.
Orthotopic tumors were established by direct intrahepatic injection of luciferase-expressing Hep3B (Hep3B-luc) cells as described. Omar et al., Mol Pharmacol, 76, 957-968 (2009). The establishment and growth of tumors were monitored by bioluminescent imaging using the IVIS™ imaging system (Xenogen, Alameda, Calif.). Two weeks after tumor cell injection, animals with established tumors were randomized to three groups (n=3) that received daily i.p. injections of FTY720 or OSU-2S at 5 mg/kg, or vehicle for 42 days and were imaged weekly. All animal use described in this manuscript was done in accordance with protocols approved by The Ohio State University Institutional Animal Care and Use Committee.

[2] = biological target: T2, PP2A (Serine/Threonine Phosphatase 2A) (Homo sapiens, UniProt P67775); test: PP2A functional enzymatic assay (malachite green) in primary CLL cells; type: cell-based; settings: 24 hrs, OSU-2S 8 μM, untreated about 0.07
T2 construct: endogenous in cells; host or cells: primary CLL cells; Ramos cells
T2 sequence (P67775 whole entry): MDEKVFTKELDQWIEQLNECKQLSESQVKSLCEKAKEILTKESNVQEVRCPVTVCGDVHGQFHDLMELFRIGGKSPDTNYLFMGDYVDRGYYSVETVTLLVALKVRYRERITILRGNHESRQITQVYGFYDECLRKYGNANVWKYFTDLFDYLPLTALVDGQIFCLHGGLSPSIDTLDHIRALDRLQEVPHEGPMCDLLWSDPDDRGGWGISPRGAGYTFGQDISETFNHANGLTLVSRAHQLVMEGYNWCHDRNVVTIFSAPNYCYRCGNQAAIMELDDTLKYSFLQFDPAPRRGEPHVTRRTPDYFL
Experimental: The ability of OSU-2S to induce PP2A (Serine/Threonine Phosphatase 2A) activity in primary CLL cells was measured at 24 hrs by a functional enzymatic assay. Lysates made from OSU-2S 8 μM treated cells are used to immunoprecipitate PP2Ac which was then used as an enzyme to cleave the specific phosphor-peptide substrate in the functional assay. The cleaved free phosphates were measured by adding malachite green detection solutions and measuring the absorbance at A650 nm. Ramos cells were also included, and FTY720 was used as the control.

[3] = test system: PTEN, p53, Mcl-1 in Huh7 cells; test: Western blot of signaling markers in drug-treated Huh7 cells; type: cell-based; settings: 24 h
Experimental: Immunoblotting. Immunoblotting of biomarkers in cell lysates and tumor tissue homogenates was carried out according to a published procedure. Hung et al., Cancer Res., 68, 1204-1212 (2008).

## CCC[C@@](N)(CO)CCc1ccc(OCCCCCC(C)C)cc1 [OSU-2S, (S)-2-amino-2-(4-[(6-methylheptyl)-oxy]phenethyl)pentan-1-ol]
PLC5 cells
  IC50: 3.5 µM
Human recombinant SphK2
  phosphorylation by recombinant SphK2: not phosphorylated
[1]; 5 mg/kg
  mice with abdominal adhesions with varying amounts of peritonitis: all
[1]; 10 mg/kg
  mice with abdominal adhesions with varying amounts of peritonitis: all
[1]; ectopic tumor-bearing mice at study endpoint
  lymphocyte levels: normal
[1]; ectopic tumor-bearing mice, daily i.p. 5 or 10 mg/kg
  overt toxicity and body weight: no overt signs of toxicity and no loss of body weight
[1]; mice after 42 days of treatment
  total lymphocyte counts: no decrease
[1]; orthotopic tumor-bearing mice, daily i.p., 42 days
  tolerability (stable body weights): well tolerated
[2]
  PP2A activity, absorbance at A650 nm: about 0.20
[3]
  effect on expression levels of PTEN, p53, or Mcl-1: neither OSU-2S nor FTY720 had an appreciable effect
